# Assay results reported in patent US20240010590A1 (priority 2020, published 2024).
# Key:
# BVDV [1] = assay: Single-detergent treatment of pdFVIII-containing liquid, BVDV inactivation; type: cell-based, bovine viral diarrhea virus; conditions: single detergent 0.1%±0.01%, 23°C±1°C, within 5 minutes
# BVDV [2] = assay: Single-detergent treatment of IVIG-containing liquid, BVDV inactivation; type: cell-based, bovine viral diarrhea virus; conditions: single detergent 0.1%±0.01%, 17°C±1°C, within 10 minutes
# BVDV [3] = assay: Single-detergent treatment of buffer containing HSA, BVDV inactivation; type: cell-based, bovine viral diarrhea virus; conditions: 14°C±1°C; for inactivation kinetics compared with Triton X-100: FIG. 4A, single detergent 0.09%-0.11%; for virus reduction factor (RF): single detergent 0.1%±0.01%, within 5 minutes
# X-MuLV = assay: S/D treatment of HSA-containing liquid, X-MuLV inactivation; type: cell-based, xenotropic murine leukemia virus; conditions: S/D mixture with PS80 and TnBP, 0.1% detergent
# Method: FIG. 2: Virus inactivation efficiency of low concentrations of 4-tert-octylbenzyl alcohol polyethoxylate in S/D treatment of human serum albumin (HSA)-containing liquid at 1° C.±1° C. A three-component mixture was used to give final concentrations of 0.08%-0.1% 4-tert-octylbenzyl alcohol polyethoxylate, 0.02%-0.03% Polysorbate 80, 0.02%-0.03% TnBP (side-by-side comparison with same concentration of Triton X-100). Virus inactivation over time is indicated by the virus reduction factor (RF) for two runs with X-MuLV (A and B, respectively). Virus inactivation of S/D treatment using 4-tert-octylbenzyl alcohol polyethoxylate was compared to virus inactivation of S/D treatment using Triton X-100 (“TX-100”). Filled symbols show values with remaining infectivity, non-filled symbols show reduction factors below the limit of detection.
# FIG. 3: Virus inactivation efficiency of low concentrations of 4-tert-octylbenzyl alcohol polyethoxylate in S/D treatment of HSA-containing liquid at 19° C.±1° C. A three-component mixture was used to give final concentrations of 0.08%-0.1% 4-tert-octylbenzyl alcohol polyethoxylate, 0.02%-0.03% Polysorbate 80, 0.02%-0.03% TnBP (side-by-side comparison with same concentration of Triton X-100). Virus inactivation over time is indicated by the virus reduction factor (RF) for two runs with X-MuLV (A and B, respectively). Virus inactivation of S/D treatment using 4-tert-octylbenzyl alcohol polyethoxylate was compared to virus inactivation of S/D treatment using Triton X-100 (“TX-100”). Filled symbols show values with remaining infectivity, non-filled symbols show reduction factors below the limit of detection.
# The experiments were performed as described for Example 3 of WO 2019/086463. However, for the S/D treatment an S/D mixture comprising 4-tert-octylbenzyl alcohol polyethoxylate was tested and compared to an S/D mixture comprising Triton X-100. The composition of the S/D mixture comprising Triton X-100 was prepared as described in Example 3 of WO 2019/086463. […]
# PRV = type: cell-based, pseudorabies virus; conditions: IVIG-containing liquid, 17°C±1°C
Substance,virus reduction factor (RF) (BVDV [1]),virus reduction factor (RF) (BVDV [2]),inactivation kinetics compared with Triton X-100 (BVDV [3]),virus reduction factor (RF) (BVDV [3]),"virus reduction factor (RF) (X-MuLV; 1°C±1°C, within 10 minutes)","virus reduction factor (RF) (X-MuLV; 19°C±1°C, within 10 minutes)","virus reduction factor (RF) (X-MuLV; 19°C±1°C, within 30 min)","inactivation kinetics compared with Triton X-100 (PRV; FIG. 1A, S/D treatment, 0.04%-0.06% detergent)","virus reduction factor (RF) (PRV; S/D mixture with PS80 and TnBP, 0.05% w/w detergent, within 1-2 minutes)"
4-tert-octylcyclohexyl alcohol polyethoxylate [Triton X-100 reduced],around 5,around 5,same inactivation kinetics as Triton X-100,around 5,–,–,–,–,–
4-tert-octylbenzyl alcohol polyethoxylate,around 5,around 5,same inactivation kinetics as Triton X-100,around 5,over 2,over 2,around 4,identical inactivation kinetics,around 4
"4-(1,1,3,3-tetramethylbutyl)phenol, ethoxylated [Triton X-100]",around 5,around 5,–,around 5,–,–,–,–,–
n-hexadecyl alcohol polyethoxylate [Brij C10],–,–,–,around 5,–,–,–,–,–
